# According to article PMC3445454, “Broad and Cross-Clade CD4^+ T-Cell Responses Elicited by a DNA Vaccine Encoding Highly Conserved and Promiscuous HIV-1 M-Group Consensus Peptides” (PLoS ONE, 2012):
# Numbering of substitutions follows the chain as printed. Read-outs that look alike come from different tables or passages of the source. Ends that are not written are not given here.
# Key:
# Assay in all cases: biochemical
# [1] = molecular target: T1, HLA-DP DPA1*01:03/DPB1*04:01 (Homo sapiens, UniProt P04440+P20036); format: binding
# T1 sequence (P20036 29-260): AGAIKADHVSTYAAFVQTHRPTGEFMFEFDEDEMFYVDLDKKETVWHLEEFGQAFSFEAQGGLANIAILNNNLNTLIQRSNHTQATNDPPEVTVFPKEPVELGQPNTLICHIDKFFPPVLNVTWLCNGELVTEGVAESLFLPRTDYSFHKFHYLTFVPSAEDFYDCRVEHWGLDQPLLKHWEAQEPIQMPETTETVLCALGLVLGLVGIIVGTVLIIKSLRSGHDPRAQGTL
# T1 sequence (P04440 30-258): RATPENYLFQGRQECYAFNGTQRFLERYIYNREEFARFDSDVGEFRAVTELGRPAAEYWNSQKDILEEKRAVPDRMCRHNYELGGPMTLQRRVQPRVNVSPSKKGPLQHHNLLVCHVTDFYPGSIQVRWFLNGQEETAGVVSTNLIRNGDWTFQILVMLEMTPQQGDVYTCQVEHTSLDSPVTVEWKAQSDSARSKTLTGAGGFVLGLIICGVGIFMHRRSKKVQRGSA
# HLA-DR DRB1*16:02 = HLA-DR DRB1*16:02 (Homo sapiens, UniProt P01903+P01911, A100R/F76Y/I96L/Q99D/V115G); format: binding
# HLA-DR DRB1*04:05 = HLA-DR DRB1*04:05 (Homo sapiens, UniProt P01903+P01911, A100R/A169T/D86S/F76Y/I96L/K127E/L162R/M171V/N62H/P40V/Q125Y/R42H/S133A/S149N/S66Y/V115G/V209L/W38E); format: binding
# HLA-DR DRB1*04:01 = HLA-DR DRB1*04:01 (Homo sapiens, UniProt P01903+P01911, A100K/A169T/F76Y/I96L/K127E/L162R/M171V/N62H/P40V/Q125Y/R42H/S133A/S149N/S66Y/V115G/V209L/W38E); format: binding
# HLA-DR DRB1*15:01 = HLA-DR DRB1*15:01 (Homo sapiens, UniProt P01903+P01911); format: binding
# HLA-DR DRB1*07:01 = HLA-DR DRB1*07:01 (Homo sapiens, UniProt P01903+P01911, A100R/A102G/A103Q/D57E/D86V/E43K/F76Y/K127E/L162R/M171V/P40G/Q125H/Q99D/R33Q/R42Y/R54Q/S133A/S66F/T210M/V115G/Y107V/Y59L/Y89S); format: binding
# [2] = molecular target: T2, HLA-DP DPA1*01:03/DPB1*02:01 (Homo sapiens, UniProt P04440+P20036, A65V/A84D/A85E/K98E); format: binding
# T2 sequence (P20036 29-260): T1 sequence (P20036 29-260)
# T2 sequence (P04440 30-258 A65V/A84D/A85E/K98E): T1 sequence (P04440 30-258) with A36V, A55D, A56E, K69E
# [3] = molecular target: T3, HLA-DP DPA1*01:03/DPB1*20:01 (Homo sapiens, UniProt P04440+P20036, A65V/A84D/A85E/E86D/F38Y/G113D/G114E/G40L/I94L/L37V/M116V/P115A/R125K/T199I); format: binding; settings: read-out: Binding capacity/IC50 (nM) DPA1*01:03 DPB1*20:01
# T3 sequence (P20036 29-260): T1 sequence (P20036 29-260)
# T3 sequence (P04440 30-258 L37V/F38Y/G40L/A65V/A84D/A85E/E86D/I94L/G113D/G114E/P115A/M116V/R125K/T199I/V234M): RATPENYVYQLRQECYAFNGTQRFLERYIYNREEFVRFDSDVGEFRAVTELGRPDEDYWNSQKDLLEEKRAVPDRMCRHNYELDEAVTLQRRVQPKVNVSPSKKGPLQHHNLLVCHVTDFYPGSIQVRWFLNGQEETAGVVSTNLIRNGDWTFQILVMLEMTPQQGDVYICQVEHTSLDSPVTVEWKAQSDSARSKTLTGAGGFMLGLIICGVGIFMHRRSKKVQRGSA
# [4] = molecular target: HLA-DP DPA1*02:01/DPB1*01:01 (Homo sapiens, UniProt P04440+P20036, F191V/F38Y/F64Y/G113D/G114E/K142R/L158P/L37V/M105V/M116V/M62Q/P115A/Q81R/R125K/R223Q/T114A/T199I/T259P)
# Sequence of HLA-DP DPA1*02:01/DPB1*01:01 (P20036 29-260 A42M/M62Q/Q81R/T114A/K142R/L158P/F191V/T259P, other chains not shown): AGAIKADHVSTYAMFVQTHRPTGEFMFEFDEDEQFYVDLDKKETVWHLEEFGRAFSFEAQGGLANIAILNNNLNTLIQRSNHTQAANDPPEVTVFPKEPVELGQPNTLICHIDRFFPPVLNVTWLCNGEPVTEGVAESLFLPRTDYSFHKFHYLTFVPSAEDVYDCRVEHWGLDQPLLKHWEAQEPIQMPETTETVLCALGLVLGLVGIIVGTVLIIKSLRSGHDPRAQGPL
# HLA-DR DRB1*11:01 = HLA-DR DRB1*11:01 (Homo sapiens, UniProt P01903+P01911, A100R/A169T/A87E/I96F/K41T/L162R/M171V/P40S/Q125H/Q178H/Q39Y/Q99D/R42S/S66Y/T262R/V115G/W38E); format: binding
# Sequence of HLA-DR DRB1*11:01 (P01903 26-254 limits assumed, other chains not shown): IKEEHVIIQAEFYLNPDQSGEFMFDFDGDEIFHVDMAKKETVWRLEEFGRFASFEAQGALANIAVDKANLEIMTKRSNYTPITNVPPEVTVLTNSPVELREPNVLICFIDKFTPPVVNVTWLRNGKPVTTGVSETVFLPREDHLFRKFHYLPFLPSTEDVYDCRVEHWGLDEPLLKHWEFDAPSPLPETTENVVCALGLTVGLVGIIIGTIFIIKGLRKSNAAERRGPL
# HLA-DR DRB1*10:01 = HLA-DR DRB1*10:01 (Homo sapiens, UniProt P01903+P01911, A100R/A169T/D57E/F55L/F60V/F69Y/F76Y/I96L/L162R/M171V/P40V/Q260P/Q39E/Q99R/R195Q/R42F/S149N/S66Y/T210M/V115G/V67A/W38E/Y59R/Y61H); format: binding
# HLA-DR DRB1*13:02 = HLA-DR DRB1*13:02 (Homo sapiens, UniProt P01903+P01911, A100E/A169T/K41T/L162R/M171V/P40S/Q125H/Q178H/Q39Y/Q99D/R42S/S66N/T262R/V115G/W38E/Y61H); format: binding
# Sequence of HLA-DR DRB1*13:02 (P01903 26-254 limits assumed, other chains not shown): as above
# HLA-DR DRB3*02:02 = HLA-DR DRB3*02:02 (Homo sapiens, UniProt P01903+P79483, A212P/D57E/F66Y/L67A/R103Q/R218S/R40L/S89Y/T80R/V86D/Y55F/Y59H); format: binding
# Sequence of HLA-DR DRB3*02:02 (P01903 26-254 limits assumed): as the sequence (P01903 26-254 limits assumed, other chains not shown) above
# Sequence of HLA-DR DRB3*02:02 (P79483 30-266 R40L/Y55F/D57E/Y59H/F66Y/L67A/T80R/V86D/S89Y/R103Q/A212P/R218S limits assumed): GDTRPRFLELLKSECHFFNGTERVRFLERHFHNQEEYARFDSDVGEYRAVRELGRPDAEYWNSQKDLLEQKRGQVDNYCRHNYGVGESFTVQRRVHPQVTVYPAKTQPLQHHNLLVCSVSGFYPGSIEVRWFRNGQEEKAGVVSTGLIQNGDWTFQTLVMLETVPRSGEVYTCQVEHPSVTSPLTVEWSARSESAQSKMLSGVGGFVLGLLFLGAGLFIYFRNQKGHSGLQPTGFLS
# HLA-DR DRB1*01:01 = HLA-DR DRB1*01:01 (Homo sapiens, UniProt P01903+P01911, A100R/D57E/F55L/F60I/F76Y/I96L/L162R/M171V/P40L/Q125E/R42F/V115G/Y59C); format: binding
# [5] = read-out: Binding capacity/IC50 (nM) DPA1*01:03 DPB1*04:01
# [6] = read-out: Binding capacity/IC50 (nM) DRB1*16:02
# [7] = read-out: Binding capacity/IC50 (nM) DRB1*04:05
# [8] = read-out: Binding capacity/IC50 (nM) DRB1*04:01
# [9] = read-out: Binding capacity/IC50 (nM) DRB1*15:01
# [10] = read-out: Binding capacity/IC50 (nM) DRB1*07:01
# [11] = read-out: Binding capacity/IC50 (nM) DPA1*01:03 DPB1*02:01
# [12] = read-out: Binding capacity/IC50 (nM) DRB1*11:01
# [13] = read-out: Binding capacity/IC50 (nM) DRB1*10:01
# [14] = read-out: Binding capacity/IC50 (nM) DRB1*13:02
# [15] = read-out: Binding capacity/IC50 (nM) DRB3*02:02
# [16] = read-out: Binding capacity/IC50 (nM) DRB1*01:01
Compound,"IC50 [1, 5] [nM]",IC50 (HLA-DR DRB1*16:02; [6]) [nM],IC50 (HLA-DR DRB1*04:05; [7]) [nM],IC50 (HLA-DR DRB1*04:01; [8]) [nM],IC50 (HLA-DR DRB1*15:01; [9]) [nM],IC50 (HLA-DR DRB1*07:01; [10]) [nM],"IC50 [2, 11] [nM]",IC50 [3] [nM],IC50 [4] [nM],IC50 (HLA-DR DRB1*11:01; [12]) [nM],IC50 (HLA-DR DRB1*10:01; [13]) [nM],IC50 (HLA-DR DRB1*13:02; [14]) [nM],IC50 (HLA-DR DRB3*02:02; [15]) [nM],IC50 (HLA-DR DRB1*01:01; [16]) [nM],IC50 [1] [nM],IC50 (HLA-DR DRB3*02:02) [nM],IC50 (HLA-DR DRB1*01:01) [nM],IC50 (HLA-DR DRB1*16:02) [nM],IC50 (HLA-DR DRB1*04:05) [nM],IC50 (HLA-DR DRB1*04:01) [nM],also measured
YAKMRSAHTNDVKQL-NH2 [RT(354-368)],3550,58,926,79,773,120,687,202,4430,1760,16,74,2850,–,–,–,–,–,–,–,–
CC[C@H](C)[C@H](NC(=O)[C@H](Cc1ccc(O)cc1)NC(=O)CNC(=O)[C@H](CO)NC(=O)[C@H](C)NC(=O)[C@@H](NC(=O)[C@H](Cc1c[nH]cn1)NC(=O)[C@@H](NC(=O)[C@H](C)NC(=O)[C@@H](NC(=O)[C@H](CC(C)C)NC(=O)[C@@H](NC(=O)[C@@H](NC(=O)[C@H](CCCCN)NC(=O)CNC(=O)[C@@H](N)CCC(=O)O)[C@@H](C)CC)[C@@H](C)CC)C(C)C)C(C)C)C(C)C)C(=O)N[C@@H](CCC(=O)O)C(N)=O [integrase(69-85)],2830,167,430,7.6,146,70,4.5,470,5930,–,4.8,17000,7190,0.56,–,–,–,–,–,–,–
CC[C@H](C)[C@H](NC(=O)[C@H](CCCCN)NC(=O)[C@@H](NC(=O)[C@@H](NC(=O)[C@@H](N)CCC(N)=O)[C@@H](C)CC)[C@@H](C)O)C(=O)N[C@@H](CCC(N)=O)C(=O)N[C@@H](CC(N)=O)C(=O)N[C@@H](Cc1ccccc1)C(=O)N[C@@H](CCCNC(=N)N)C(=O)N[C@H](C(=O)N[C@@H](Cc1ccc(O)cc1)C(=O)N[C@@H](Cc1ccc(O)cc1)C(=O)N[C@@H](CCCNC(=N)N)C(=O)N[C@@H](CC(=O)O)C(=O)N[C@@H](CO)C(=O)N[C@@H](CCCNC(=N)N)C(=O)N[C@@H](CC(=O)O)C(=O)N1CCC[C@H]1C(=O)N[C@H](C(=O)N[C@@H](Cc1c[nH]c2ccccc12)C(N)=O)[C@@H](C)CC)C(C)C [integrase(216-235)],–,7.1,179,203,–,63,–,39,400,288,45,1930,–,0.7,1070,414,–,–,–,–,IC50 (HLA-DR DRB1*15:01): 5.3 nM; IC50 [2]: 311 nM
CC(C)C[C@H](NC(=O)[C@H](CCCCN)NC(=O)[C@@H](NC(=O)[C@H](CC(C)C)NC(=O)[C@@H]1CCCN1C(=O)[C@@H]1CCCN1C(=O)[C@@H](NC(=O)[C@H](CC(N)=O)NC(=O)[C@@H](NC(=O)[C@H](Cc1ccccc1)NC(=O)[C@H](CCC(=O)O)NC(=O)[C@H](Cc1c[nH]c2ccccc12)NC(=O)[C@@H](N)CCC(=O)O)C(C)C)[C@@H](C)O)C(C)C)C(=O)N[C@@H](Cc1c[nH]c2ccccc12)C(=O)N[C@@H](Cc1ccc(O)cc1)C(N)=O [RT(413-427)],846,–,–,–,329,–,639,1070,101,–,–,–,4.4,–,–,–,26,10,78,42,IC50 (HLA-DR DRB1*07:01): 39 nM; IC50 (HLA-DR DRB1*11:01): 312 nM; IC50 (HLA-DR DRB1*10:01): 12 nM; IC50 (HLA-DR DRB1*13:02): 2220 nM
CSCC[C@H](NC(=O)[C@H](CCCCN)NC(=O)[C@H](C)NC(=O)[C@H](Cc1ccc(O)cc1)NC(=O)[C@H](CCCCN)NC(=O)CNC(=O)[C@@H](NC(=O)[C@H](CCCCN)NC(=O)[C@H](CC(C)C)NC(=O)[C@H](CC(N)=O)NC(=O)[C@H](CCCCN)NC(=O)[C@H](Cc1ccccc1)NC(=O)[C@@H]1CCCN1C(=O)[C@H](CCC(=O)O)NC(=O)[C@@H](N)CCC(N)=O)[C@@H](C)O)C(N)=O [RT(343-357)],–,–,–,–,47,–,115,2790,300,–,–,–,–,–,14,8610,81,464,277,591,IC50 (HLA-DR DRB1*07:01): 6210 nM; IC50 (HLA-DR DRB1*11:01): 428 nM; IC50 (HLA-DR DRB1*10:01): 19 nM; IC50 (HLA-DR DRB1*13:02): 25000 nM
